Assays:
[1] = target: GDP-loaded wild-type KRAS (WT) (Homo sapiens, UniProt P01116); assay: KRAS (GDP) biochemical TR-FRET probe displacement assay, WT; assay type: binding; conditions: 2 hours
Protocol: (§1) Compounds are tested for binding to GDP-loaded wild-type KRAS (WT), KRAS-G12C, KRAS-G12D, and KRAS-G12V in a 384-well assay format using a TR-FRET probe displacement assay in buffer consisting of 50 mM Hepes (pH 7.4), 150 mM NaCl, 5 mM MgCl2 and 0.005% Tween-20. […] Compounds are serially diluted (1:3) in DMSO. The LabCyte ECHO Acoustic dispenser was used to pre-spot the assay plates (384-well Non-Binding Surface plates, Corning, Catalog #3824) with 50 nL of compound. 5 μL of 2X enzyme concentration is added to the pre-spotted plates and incubated for 30 minutes before adding 5 μL of 2X concentration of Eu-streptavidin and Cy-5 labelled probe (10 μL final reaction volume). The plates are incubated at room temperature for 2 hours before measuring TR-FRET ratio (665 nm/615 nm) on the Envision multimode plate reader. The ratios are normalized to a positive (saturating concentration of known inhibitor) and negative (DMSO) control and plotted against the log of compound concentration.

GDP-loaded KRAS-G12C = GDP-loaded KRAS-G12C (Homo sapiens, UniProt P01116, G12C); assay: KRAS (GDP) biochemical TR-FRET probe displacement assay, G12C; assay type: binding; conditions: 2 hours
Sequence of GDP-loaded KRAS-G12C (P01116 1-188 isoform P01116-2 G12C): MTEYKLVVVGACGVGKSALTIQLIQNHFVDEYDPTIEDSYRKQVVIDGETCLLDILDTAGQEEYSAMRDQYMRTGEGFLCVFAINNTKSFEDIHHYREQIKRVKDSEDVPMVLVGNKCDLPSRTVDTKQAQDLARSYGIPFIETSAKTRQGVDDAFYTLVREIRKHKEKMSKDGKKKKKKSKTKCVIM
Protocol: as §1

GDP-loaded KRAS-G12V = GDP-loaded KRAS-G12V (Homo sapiens, UniProt P01116, G12V); assay: KRAS (GDP) biochemical TR-FRET probe displacement assay, G12V; assay type: binding; conditions: 2 hours
Sequence of GDP-loaded KRAS-G12V (P01116 1-188 isoform P01116-2 G12V): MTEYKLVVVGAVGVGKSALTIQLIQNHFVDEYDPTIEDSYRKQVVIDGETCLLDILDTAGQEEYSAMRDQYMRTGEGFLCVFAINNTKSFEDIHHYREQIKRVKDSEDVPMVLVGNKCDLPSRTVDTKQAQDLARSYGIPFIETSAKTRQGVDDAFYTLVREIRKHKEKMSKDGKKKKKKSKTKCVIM
Protocol: as §1

GDP-loaded KRAS-G12D = GDP-loaded KRAS-G12D (Homo sapiens, UniProt P01116, G12D); assay: KRAS (GDP) biochemical TR-FRET probe displacement assay, G12D; assay type: binding; conditions: 2 hours
Sequence of GDP-loaded KRAS-G12D (P01116 1-188 isoform P01116-2 G12D): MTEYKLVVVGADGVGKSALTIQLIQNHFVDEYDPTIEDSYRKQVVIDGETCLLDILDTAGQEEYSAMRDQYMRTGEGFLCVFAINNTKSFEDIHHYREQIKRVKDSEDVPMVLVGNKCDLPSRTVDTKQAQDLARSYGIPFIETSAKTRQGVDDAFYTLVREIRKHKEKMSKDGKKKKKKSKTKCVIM
Protocol: as §1

[2] = test system: cellular pERK in Kuramochi (WT KRAS) cells; assay: Cell based pERK assay, Kuramochi; conditions: Kuramochi (WT KRAS), 2 hours incubation, HTRF phospho-ERK1/2; read-out: Kuramochi pERK EC50
How it was run: (§2)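 Cells seeded overnight (5000 AsPC-1 or 7500 others per well; RPMI/10% FBS, DMEM/10% FBS for MIA-PaCa-2), treated with 1:3 serial dilutions for 2 h at 37 °C. Phospho-ERK1/2 (Thr202/Tyr204) measured by HTRF (665/615 nm) after overnight lysis, normalized to DMSO and saturating known-inhibitor controls.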

[3] = test system: cellular pERK in MIA-PaCa-2 (KRAS-G12C) cells; assay: Cell based pERK assay, MIA-PaCa-2; conditions: Homo sapiens; MIA-PaCa-2 (KRAS-G12C), 2 hours incubation, HTRF phospho-ERK1/2; read-out: MIAPaCa2 pERK EC50
How it was run: as §2

[4] = test system: cellular pERK in NCI-H441 (KRAS-G12V) cells; assay: Cell based pERK assay, NCI-H441; conditions: Homo sapiens; NCI-H441 (KRAS-G12V), 2 hours incubation, HTRF phospho-ERK1/2; read-out: H441 PERK EC50
How it was run: as §2

[5] = test system: cellular pERK in ASPC-1 (KRAS G12D) cells; assay: Cell based pERK assay, ASPC-1; conditions: Homo sapiens, ASPC1; ASPC-1 (KRAS G12D), 2 hours incubation, HTRF phospho-ERK1/2; read-out: AsPC1 pERK EC50
How it was run: as §2

Sequence of GDP-loaded wild-type KRAS (WT) (P01116 1-188 isoform P01116-2): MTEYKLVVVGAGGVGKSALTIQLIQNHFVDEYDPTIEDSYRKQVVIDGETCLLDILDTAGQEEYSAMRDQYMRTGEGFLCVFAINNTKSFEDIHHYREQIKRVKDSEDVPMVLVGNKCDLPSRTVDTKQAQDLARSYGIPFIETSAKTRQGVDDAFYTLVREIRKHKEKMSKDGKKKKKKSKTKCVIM

SMILES	IC50 [1]	IC50 (GDP-loaded KRAS-G12C)	IC50 (GDP-loaded KRAS-G12V)	IC50 (GDP-loaded KRAS-G12D)	EC50 [2]	EC50 [3]	EC50 [4]	EC50 [5]
C[C@H]1Cc2nc(-c3cc(O)cc4ccc(F)c(Cl)c34)c(F)c3nc(OCC45CCCN4CCC5)nc(c23)N2C[C@@]3(F)CC[C@](F)(N3)[C@H]12 [Example 4-30, 5-chloro-6-fluoro-4-((5S,5aS,6R,9S)-1,6,9-trifluoro-5-methyl-12-((tetrahydro-1H-pyrrolizin-7a(5H)-yl)methoxy)-4,5,5a,6,7,8,9,10-octahydro-3,10a,11,13,14-pentaaza-6,9-methanonaphtho[1,8-ab]heptalen-2-yl)naphthalen-2-ol]	0.092 nM	0.194 nM	0.405 nM	0.869 nM	1.94 nM	0.365 nM	4.88 nM	18 nM
C#Cc1c(F)ccc2cc(N)cc(-c3nc4c5c(nc(OC[C@@]67CCCN6[C@H](COC(C(F)(F)F)(C(F)(F)F)C(F)(F)F)CC7)nc5c3F)N3C[C@@]5(F)CC[C@](F)(N5)[C@@H]3[C@@H](C)C4)c12 [Example 4-36, 5-ethynyl-6-fluoro-4-((5S,5aS,6R,9S)-1,6,9-trifluoro-12-(((3S,7aS)-3-(((1,1,1,3,3,3-hexafluoro-2-(trifluoromethyl)propan-2-yl)oxy)methyl)tetrahydro-1H-pyrrolizin-7a(5H)-yl)methoxy)-5-methyl-4,5,5a,6,7,8,9,10-octahydro-3,10a,11,13,14-pentaaza-6,9-methanonaphtho[1,8-ab]heptalen-2-yl)naphthalen-2-amine]	> 100 nM	> 100 nM	> 100 nM	> 100 nM	671 nM	> 1000 nM	> 1000 nM	> 1000 nM
C#Cc1c(F)ccc2cc(O)cc(-c3c(F)c4c5c(nc(OC[C@@]67CCCN6C[C@H](F)C7)nc5c3F)N3C[C@@]5(F)CC[C@H](N5)[C@H]3CC4)c12 [Example 4-41, 5-ethynyl-6-fluoro-4-((1S,4S,14aR)-4,10,12-trifluoro-8-(((2R,7aS)-2-fluorotetrahydro-1H-pyrrolizin-7a(5H)-yl)methoxy)-1,2,3,4,5,13,14,14a-octahydro-1,4-epiminoazepino[1′,2′:1,7]azepino[2,3,4-de]quinazolin-11-yl)naphthalen-2-ol]	0.5 nM	0.386 nM	0.949 nM	1.41 nM	8.27 nM	0.501 nM	4.42 nM	29.7 nM
C[C@H]1Cc2nc(-c3cc(N)cc4ccc(F)c(Cl)c34)c(F)c3nc(OCC45CCCN4CCC5)nc(c23)N2C[C@@]3(F)CC[C@](F)(N3)[C@H]12 [Example 5-3]	0.266 nM	1.55 nM	2.96 nM	7.83 nM	1.45 nM	0.897 nM	9.64 nM	31.3 nM
Nc1cc(-c2nc3c4c(nc(OCC56CCCN5CCC6)nc4c2F)N2C[C@@]4(F)CC[C@](F)(N4)[C@H]2CCC3)c2c(OC(F)(F)F)c(F)ccc2c1 [Example 5-5, 6-fluoro-4-[(4S,7R,8R)-4,7,15-trifluoro-18-(1,2,3,5,6,7-hexahydropyrrolizin-8-ylmethoxy)-2,13,17,19,21-pentazapentacyclo[10.7.1.14,7.02,8.016,20]henicosa-1(19),12(20),13,15,17-pentaen-14-yl]-5-(trifluoromethoxy)naphthalen-2-amine]	18.5 nM	21.6 nM	85 nM	≥ 100 nM	5.9 nM	33.6 nM	221 nM	519 nM
C#Cc1c(F)c(F)cc2cc(N)cc(-c3nc4c5c(nc(OCC67CCCN6CCC7)nc5c3F)N3C[C@@]5(F)CC[C@](F)(N5)[C@@H]3[C@@H](C)C4)c12 [Example 5-7, 5-ethynyl-6,7-difluoro-4-((5S,5aS,6R,9S)-1,6,9-trifluoro-5-methyl-12-((tetrahydro-1H-pyrrolizin-7a(5H)-yl)methoxy)-4,5,5a,6,7,8,9,10-octahydro-3,10a,11,13,14-pentaaza-6,9-methanonaphtho[1,8-ab]heptalen-2-yl)naphthalen-2-amine]	0.116 nM	0.311 nM	0.723 nM	1.03 nM	2.75 nM	0.378 nM	3.1 nM	12.4 nM
